# Results reported in patent publication US4021563A, “Method of treating cardiac arrhythmia with γ-piperidino-butyrophenones” (priority 1975, dated 1977).
# “Also recorded” adds a separate entry of the source. Counter-ions that a name gives are not always drawn.
# Legend:
# [1] = tested on: ouabain-induced arrhythmias; assay: ouabain-induced arrhythmia in conscious rabbits, prophylactic effect; format: in vivo, rabbit; settings: for arrhythmogenic dose of ouabain increased to more than 110 %, number of rabbits: 1 minute before ouabain; for arrhythmogenic dose of ouabain in % of control arrhythmogenic dose, m ± SD: physiol. saline 96 ± 14; for antiarrhythmic activity compared with clinically used drugs: prophylactic and curative effect
# Excerpt: (§1) Thus, acid-addition salts formed by admixture of a γ-piperidino-butyrophenone base with an equivalent of an acid, suitably in a neutral solvent, are formed with such acids as sulfuric, phosphoric, hydrochloric, hydrobromic, citric, lactic, tartaric, acetic, and related acids. For purposes of this invention, the substituted γ-piperidino-butyrophenones are equivalent to their non-toxic acid-addition salts. The antiarrhythmic activity of the compounds of the present invention compared with that of some clinically used antiarrhythmic drugs was determined as follows.
# (§2) Intravenous infusion of ouabain to conscious rabbits produces ventricular arrhythmias of short duration. An increase in the minimal dose of ouabain required to produce an arrhythmia may be taken as a measure of the antiarrhythmic action of the drug.
# In all experiments with drug treatment the control dose of ouabain required to produce arrhythmias in an animal was obtained the day before.
# The test compound was administered intravenously to rabbits 1 minute before the ouabain challenge, and the arrhythmogenic dose of ouabain after treatment was evaluated in percent of the control arrhythmogenic dose. If this dose amounts to more the 110 % of the control arrhythmogenic dose recorded the day before, the test compound is regarded as having antiarrhymic activity.
# [2] = tested on: ouabain-induced arrhythmia; assay: ouabain-induced arrhythmia in conscious rabbits, curative effect (reversal); format: in vivo, rabbit; settings: reversal at least 1 min within 10 minutes
# Excerpt: as §1, §2
# A substance was considered curative, if it was able to reverse the ouabain-induced arrhythmia for at least 1 min. within 10 minutes after the injection.
# [3] = toxic effects of active doses in antiarrhythmic tests
# Excerpt: as §1, with “follows. The compounds were tested for their ability to prevent and reverse ouabain-induced arrhythmias in conscious rabbits, and the method used was essentially according to Basil et al. (Brit. J. Pharmacol. 1974, 50, 323- 33).” for “follows.”
# [4] = tested on: ouabain-induced ventricular tachycardia and fibrillation; settings: anaesthetized guinea pigs, effective dosage; cited from earlier work
# [5] = tested on: arrhythmia induced by aconitine; settings: in vivo; cited from earlier work
# cardiac arrhythmia = settings: cited from earlier work
# [6] = tested on: ventricular extrasystoles (VES); assay: double-blind clinical test, ventricular extrasystoles in coronary care unit patients; format: in vivo, human patients
# Procedure: All patients with ventricular extrasystoles (VES) admitted to a coronary care unit suspected of having acute myocardial infarction are included in the investigation. This was carried out in a double-blind manner with metylperone against placebo (metylperone injectable without metylperone). When a patient arrives at the unit, they are monitored on an oscilloscope for registration of the electrocardiogram (ECG). In a 1 hour long period of observation the patient is characterized in respect to the type and the frequency of the arrhythmia. Depending on this and on the estimated age of the infarction, the patient is distributed to one of four groups. A bottle (metylperone or placebo) is chosen from a box, containing identical bottles, and in the following 10 minutes a total of 50 mg metylperone (or placebo) is injected intravenously as 5 injections with 2 min. intervals. The ECG registration is continued for 2 hours. All ECGes in the three hours period are analyzed manually and the arrhythmias are recorded according to frequency and type. The psychic status and the cardiovascular status are checked several times during the three hours.
# ventricular arrhythmia = assay: intravenous metylperone in patients with myocardial infarction, ventricular arrhythmia and side effects; format: in vivo, human patients
# Excerpt: Equi-antiarrhythmic doses of previously used drugs produce various cardiovascular side effects as well as agitation and confusion.
# tranquilizing effect = settings: in vivo
# [7] = tested on: arrhythmia induced by aconitine; assay: aconitine-induced arrhythmia; format: in vivo; settings: 0.1-10.0 mg/kg
# [8] = tested on: cardiac effects of catecholamines; settings: Tuck 1973; Petersen 1974; cited from earlier work
compound,measurement,setting,value
"CCCC1(CC)CCN(CCCC(=O)c2ccc(F)cc2)CC1 [FG 5226, 4-fluoro-γ-(4-ethyl-4-n-propyl-piperidino)-butyrophenone]","arrhythmogenic dose of ouabain increased to more than 110 %, number of rabbits","[1]; 0.1 mg/kg i.v., 4 rabbits",3 number of rabbits
same,"arrhythmogenic dose of ouabain in % of control arrhythmogenic dose, m ± SD",[1]; 0.1 mg/kg i.v.,109 ± 21 % of control arrhythmogenic do
same,antiarrhythmic activity compared with clinically used drugs,[1]; 0.1 mg/kg i.v.,"more effective than lidocaine 1-5 mg/kg, procainamide 1- 10 mg/kg, quinidine 1 mg/kg, and propranolol 0.5 mg/kg; also recorded: equiactive (i.e., equally active) with quinidine 10 mg/kg, and propranolol 2 mg/kg"
same,"arrhythmogenic dose of ouabain increased to more than 110 %, number of rabbits","[1]; 1.0 mg/kg i.v., 4 rabbits",1 number of rabbits
same,"arrhythmogenic dose of ouabain in % of control arrhythmogenic dose, m ± SD",[1]; 1.0 mg/kg i.v.,93 ± 18 % of control arrhythmogenic do
same,"curative effect, number of rabbits reversed/tested",[2]; 0.1 mg/kg i.v.,3/4
same,"curative effect, number of rabbits reversed/tested",[2]; 1.0 mg/kg i.v.,2/4
same,toxic effects of the active doses,[3]; active antiarrhythmic doses,In contrast to metylperone and FG 5226 the active doses of the known antiarrhythmic drugs produced various toxic effects
NC(=O)OC1CCN(CCCC(=O)c2ccc(F)cc2)C2CCCCC12 (stereo not shown) [L 7810],antagonism of ouabain-induced ventricular tachycardia and fibrillation,[4],0.3 to 3 mg/kg
same,inhibition of arrhythmia induced by aconitine,[5],inhibit arrhythmia induced by aconitine
same,antiarrhythmic properties / activity of prior art compounds,cardiac arrhythmia,exert antiarrhythmic properties
"CCN(CC)CC(=O)Nc1c(C)cccc1C [Lidocaine, lidocaine]","arrhythmogenic dose of ouabain increased to more than 110 %, number of rabbits","[1]; 1.0 mg/kg i.v., 4 rabbits",0 number of rabbits
same,"arrhythmogenic dose of ouabain in % of control arrhythmogenic dose, m ± SD",[1]; 1.0 mg/kg i.v.,73 ± 25 % of control arrhythmogenic do
same,"arrhythmogenic dose of ouabain increased to more than 110 %, number of rabbits","[1]; 5.0 mg/kg i.v., 5 rabbits",0 number of rabbits
same,"arrhythmogenic dose of ouabain in % of control arrhythmogenic dose, m ± SD",[1]; 5.0 mg/kg i.v.,91 ± 21 % of control arrhythmogenic do
same,"curative effect, number of rabbits reversed/tested",[2]; 1.0 mg/kg i.v.,1/3
same,"curative effect, number of rabbits reversed/tested",[2]; 5.0 mg/kg i.v.,2/4
"CC1CCN(CCCC(=O)c2ccc(F)cc2)CC1 [Metylperone, 4-fluoro-γ-(4-methyl-piperidino)-butyrophenone hydrochloride]",activity against ouabain-induced ventricular tachycardia in conscious rabbits,[1]; 0.1 mg/kg,extremely active
same,"arrhythmogenic dose of ouabain increased to more than 110 %, number of rabbits","[1]; 0.1 mg/kg i.v., 4 rabbits",3 number of rabbits
same,"arrhythmogenic dose of ouabain in % of control arrhythmogenic dose, m ± SD",[1]; 0.1 mg/kg i.v.,129 ± 20 % of control arrhythmogenic do
same,antiarrhythmic activity compared with clinically used drugs,"[1]; 0.1 mg/kg i.v., hydrochloride","more effective than lidocaine 1-5 mg/kg, procainamide 1- 10 mg/kg, quinidine 1 mg/kg, and propranolol 0.5 mg/kg; also recorded: equiactive (i.e., equally active) with quinidine 10 mg/kg, and propranolol 2 mg/kg"
same,"arrhythmogenic dose of ouabain increased to more than 110 %, number of rabbits","[1]; 1.0 mg/kg i.v., 4 rabbits",3 number of rabbits
same,"arrhythmogenic dose of ouabain in % of control arrhythmogenic dose, m ± SD",[1]; 1.0 mg/kg i.v.,126 ± 30 % of control arrhythmogenic do
same,"curative effect, number of rabbits reversed/tested",[2]; 0.1 mg/kg i.v.,5/5
same,"curative effect, number of rabbits reversed/tested",[2]; 1.0 mg/kg i.v.,5/5
same,antiarrhythmic effect in patients with acute myocardial infarction,[6]; 50 mg i.v.,has an antiarrhythmic effect in patients with acute myocardial infarction
same,"mean total VES ± SD, 0 - 60 min. after inj.","[6]; AMI patients, N = 6, 50 mg i.v., placebo 418 ± 394",212 ± 138
same,"mean total VES ± SD, 61 - 120 min. after inj.","[6]; AMI patients, N = 6, 50 mg i.v., placebo 644 ± 815",93 ± 89
same,"mean total VES ± SD, control hour","[6]; AMI patients, N = 6, before injection (baseline)",372 ± 148
same,"mean total VES ± SD, 0 - 60 min. after inj.","[6]; not AMI patients, N = 2, 50 mg i.v., placebo 643 ± 290",251 ± 85
same,"mean total VES ± SD, 61 - 120 min. after inj.","[6]; not AMI patients, N = 2, 50 mg i.v., placebo 695 ± 240",348 ± 28
same,"mean total VES ± SD, control hour","[6]; not AMI patients, N = 2, before injection (baseline)",321 ± 18
same,side effects during treatment of cardiac arrhythmia,"ventricular arrhythmia; human, in vivo",lack of side effects
same,side effects in patients,"ventricular arrhythmia; human, in vivo, iv",without producing side effects
same,inhibition of ventricular arrhythmia in patients with myocardial infarction,ventricular arrhythmia; intravenous injection 10-50 mg,inhibit ventricular arrhythmia in patients with myocardial infarction
same,toxic effects of the active doses,[3]; in vivo,In contrast to metylperone and FG 5226 the active doses of the known antiarrhythmic drugs produced various toxic effects
same,tranquilizing effect,tranquilizing effect,has a tranquilizing effect
same,aconitine inhibitory effect,[7],no aconitine inhibitory effect
same,potentiation of catecholamines,[8],does not potentiate the cardiac effects of catecholamines
"CCN(CC)CCNC(=O)c1ccc(N)cc1 [Procainamide, procainamide]","arrhythmogenic dose of ouabain increased to more than 110 %, number of rabbits","[1]; 1.0 mg/kg i.v., 4 rabbits",2 number of rabbits
same,"arrhythmogenic dose of ouabain in % of control arrhythmogenic dose, m ± SD",[1]; 1.0 mg/kg i.v.,111 ± 18 % of control arrhythmogenic do
same,"arrhythmogenic dose of ouabain increased to more than 110 %, number of rabbits","[1]; 10.0 mg/kg i.v., 4 rabbits",1 number of rabbits
same,"arrhythmogenic dose of ouabain in % of control arrhythmogenic dose, m ± SD",[1]; 10.0 mg/kg i.v.,104 ± 20 % of control arrhythmogenic do
same,"curative effect, number of rabbits reversed/tested",[2]; 1.0 mg/kg i.v.,0/4
same,"curative effect, number of rabbits reversed/tested",[2]; 10.0 mg/kg i.v.,2/4
same,antiarrhythmic properties / activity of prior art compounds,cardiac arrhythmia,activity as antiarrhythmic agents
same,toxic effects of prior art antiarrhythmic drugs,cardiac arrhythmia,various toxic effects
"CC(C)NCC(O)COc1cccc2ccccc12 (stereo not shown) [Propranolol, propranolol]","arrhythmogenic dose of ouabain increased to more than 110 %, number of rabbits","[1]; 0.5 mg/kg i.v., 4 rabbits",2 number of rabbits
same,"arrhythmogenic dose of ouabain in % of control arrhythmogenic dose, m ± SD",[1]; 0.5 mg/kg i.v.,98 ± 28 % of control arrhythmogenic do
same,"arrhythmogenic dose of ouabain increased to more than 110 %, number of rabbits","[1]; 2.0 mg/kg i.v., 4 rabbits",3 number of rabbits
same,"arrhythmogenic dose of ouabain in % of control arrhythmogenic dose, m ± SD",[1]; 2.0 mg/kg i.v.,121 ± 26 % of control arrhythmogenic do
same,"curative effect, number of rabbits reversed/tested",[2]; 0.5 mg/kg i.v.,1/5
same,"curative effect, number of rabbits reversed/tested",[2]; 2.0 mg/kg i.v.,4/4
same,antiarrhythmic properties / activity of prior art compounds,cardiac arrhythmia,activity as antiarrhythmic agents
same,toxic effects of prior art antiarrhythmic drugs,cardiac arrhythmia,various toxic effects
"C=C[C@H]1C[N@@]2CC[C@H]1C[C@@H]2[C@@H](O)c1ccnc2ccc(OC)cc12 [Quinidine, quinidine]","arrhythmogenic dose of ouabain increased to more than 110 %, number of rabbits","[1]; 1.0 mg/kg i.v., 4 rabbits",2 number of rabbits
same,"arrhythmogenic dose of ouabain in % of control arrhythmogenic dose, m ± SD",[1]; 1.0 mg/kg i.v.,104 ± 10 % of control arrhythmogenic do
same,"arrhythmogenic dose of ouabain increased to more than 110 %, number of rabbits","[1]; 10.0 mg/kg i.v., 4 rabbits",3 number of rabbits
same,"arrhythmogenic dose of ouabain in % of control arrhythmogenic dose, m ± SD",[1]; 10.0 mg/kg i.v.,131 ± 42 % of control arrhythmogenic do
same,"curative effect, number of rabbits reversed/tested",[2]; 1.0 mg/kg i.v.,2/4
same,"curative effect, number of rabbits reversed/tested",[2]; 10.0 mg/kg i.v.,4/4
same,antiarrhythmic properties / activity of prior art compounds,cardiac arrhythmia,activity as antiarrhythmic agents
same,toxic effects of prior art antiarrhythmic drugs,cardiac arrhythmia,various toxic effects
CN(C)CCCN1c2ccccc2Sc2ccc(Cl)cc21 [chlorpromazine],potentiation of catecholamines,[8],potentiation of catecholamines
